US9428536B2, “Immunostimulatory G, U-containing oligoribonucleotides” (Zoetis Belgium SA, priority 2002, dated 2016)

Legend:
[1] = system: wild type murine macrophages; test: Wild type murine macrophages in the presence of IFN-γ, IL-12 p40 ELISA; format: cell-based, mouse; conditions: FIG. 6 Panel A, 12 hours, RNA with DOTAP
Description: The following murine cells were isolated and incubated with various RNAs and other known TLR ligands in order to assess species-, cell type-, and signaling pathway-specificity: wild type macrophages in the presence of IFN-γ; MyD88-deficient macrophages in the presence of IFN-γ; J774 (mouse macrophage cell line); and RAW 264.7 (mouse macrophage cell line, e.g., ATCC TIB-71). Murine bone macrophages were generated from wild type or MyD88-deficient C57BL/6 mice by culturing bone marrow cells with 50 ng/ml M-CSF for 5 days. Cells were seeded at 25,000 cells/well and treated with 20 ng/ml IFN-γ for 16 hours. The murine macrophage cell lines RAW and J774 were seeded at 10,000 cells/well.
The following test and control agents were examined: R-848 (2 μg/ml), ODN 1668 (CpG DNA; 5′-[…]-3′; SEQ ID NO:7); LPS (1 μg/ml); poly IC (50 μg/ml); Pam3Cys (5 μg/ml); Ionomycin/TPA; the following RNA molecules, each with (“+Lipo”) and without DOTAP (10 μg/200 μl culture well): GUGUUUAC alone (RNA1); GUAGGCAC alone (RNA2); GUGUUUAC in combination with GUAGGCAC (RNA1/2); […] (RNA6; SEQ ID NO:8); […] (RNA9; SEQ ID NO:9); and the following DNA molecules, corresponding to RNA1, RNA2, and RNA1/2: GTGTTTAC alone (DNA1); GTAGGCAC alone (DNA2); and GTGTTTAC in combination with GTAGGCAC (DNA1/2). These RNA and DNA oligonucleotides each contained a phosphorothioate linkage between the penultimate and 3′ terminal nucleoside. RNA6 and RNA9 each contained in addition a phosphorothioate linkage between the penultimate and 5′ terminal nucleoside. RNA6 corresponds to a ribosomal RNA stem loop derived from Listeria monocytogenes. RNA9 corresponds to a stem loop derived from human immunodeficiency virus (HIV, an RNA retrovirus). The cells were cultured for 12 hours and supernatants were harvested. Murine IL-12 p40, IL-6, and TNF-α were measured by ELISA using matched antibody pairs from BD-Pharmingen according to the manufacturer's protocol.

human TLR7 = target: T1, human TLR7 (Homo sapiens, UniProt Q9NYK1); test: NF-κB luciferase reporter in 293 HEK cells transfected with human TLR7; format: cell-based; conditions: FIG. 12; transient transfectants; 7 hours stimulation
T1 construct: All full-length TLR fragments were cloned into pGEM-T Easy vector; expressed in transfected cells; host or cells: 293 HEK cells (ATCC), transient electroporation with pcDNA3.1(-) TLR expression plasmid
T1 sequence (Q9NYK1 27-1049): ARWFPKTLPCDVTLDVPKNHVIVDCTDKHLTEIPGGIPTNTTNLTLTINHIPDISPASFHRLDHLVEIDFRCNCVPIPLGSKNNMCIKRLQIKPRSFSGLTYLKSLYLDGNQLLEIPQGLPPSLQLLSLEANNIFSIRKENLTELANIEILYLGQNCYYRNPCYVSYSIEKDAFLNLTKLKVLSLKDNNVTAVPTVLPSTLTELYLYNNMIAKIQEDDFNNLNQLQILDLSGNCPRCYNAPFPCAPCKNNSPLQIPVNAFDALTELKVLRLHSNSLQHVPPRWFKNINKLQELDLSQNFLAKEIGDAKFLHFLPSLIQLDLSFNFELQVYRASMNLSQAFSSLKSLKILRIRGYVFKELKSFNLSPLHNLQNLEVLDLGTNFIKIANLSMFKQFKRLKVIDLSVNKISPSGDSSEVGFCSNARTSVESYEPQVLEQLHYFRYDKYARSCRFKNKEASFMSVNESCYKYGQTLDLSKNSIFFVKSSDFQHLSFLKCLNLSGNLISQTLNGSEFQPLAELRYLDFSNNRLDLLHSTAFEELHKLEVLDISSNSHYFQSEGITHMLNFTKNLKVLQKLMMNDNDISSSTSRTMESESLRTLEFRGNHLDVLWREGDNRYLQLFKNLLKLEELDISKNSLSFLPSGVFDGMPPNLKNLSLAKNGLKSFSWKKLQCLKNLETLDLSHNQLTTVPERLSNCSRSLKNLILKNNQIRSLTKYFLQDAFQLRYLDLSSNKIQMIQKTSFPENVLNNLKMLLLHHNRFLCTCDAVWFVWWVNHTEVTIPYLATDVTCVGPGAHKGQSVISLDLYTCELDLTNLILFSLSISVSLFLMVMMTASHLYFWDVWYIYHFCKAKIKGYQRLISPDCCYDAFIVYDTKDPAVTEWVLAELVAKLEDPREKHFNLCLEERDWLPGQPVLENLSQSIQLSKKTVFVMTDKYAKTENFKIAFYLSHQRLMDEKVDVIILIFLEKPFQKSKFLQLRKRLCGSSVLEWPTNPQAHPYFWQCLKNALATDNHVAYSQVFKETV
Description: FIG. 12 depicts the responsiveness of human TLR7 and human TLR8 to ribonucleosides. It was determined that the response by human PBMC to RNA or RVC was mediated by TLR7 or TLR8 and further that the response could be driven by ribonucleosides only. Human 293 cells were either mock-transfected or transfected with human TLR7 or human TLR8 and monitored for responsiveness to ribonucleosides. The open reading frames of human TLR7 (hTLR7) and human TLR8 (hTLR8) were amplified by PCR from a cDNA library of human PBMC using the following primers pairs: for TLR7, 5′-[…]-3′ (SEQ ID NO:15) and 5′-[…]-3′ (SEQ ID NO:16); and for TLR8, 5′-[…]-3′ (SEQ ID NO:17) and 5′-[…]-3′ (SEQ ID NO:18). The sequence information for primer selection was obtained from Genbank accession numbers AF240467 and AF245703. All full-length TLR fragments were cloned into pGEM-T Easy vector (Promega, Mannheim, Germany), excised with NotI, cloned into the expression vector pcDNA 3.1(−) (Invitrogen, Karlsruhe, Germany) and sequenced. Sequences of the coding region of hTLR7 and hTLR8 correspond to the accession numbers AF240467 (SEQ ID NO:25) and AF245703, respectively (SEQ ID NO:29).
For monitoring transient NF-κB activation, 3×10^6 293 HEK cells (ATCC, VA, USA) were electroporated at 200 volt and 960 μF with 1 μg TLR expression plasmid, 20 ng NF-κB luciferase reporter-plasmid and 14 μg of pcDNA3.1(−) plasmid as carrier in 400 μl RPMI medium supplemented with 25% fetal bovine serum (FCS). Cells were seeded at 10^5 cells per well and after over night culture stimulated with R-848 (denoted in FIG. 12 as X; commercially synthesized by GLSynthesis Inc., Worcester, Mass., USA), RVCs or ribonucleosides for a further 7 hours. Stimulated cells were lysed using reporter lysis buffer (Promega, Mannheim, Germany), and lysate was assayed for luciferase activity using a Berthold luminometer (Wildbad, Germany).

CCOCc1nc2c(N)nc3ccccc3c2n1CC(C)(C)O [R-848, 4-amino-α,α-dimethyl-2-ethoxymethyl-1H-imidazo[4,5-c]quinoline-1-ethanol, reference compound]
IL-12 p40 secretion by wild type murine macrophages [1]: significant amounts | response of TLR7 transfectants (NF-κB luciferase) (human TLR7): responded
